From patent US20240360151A1 (SANOFI, priority 2023, published 2024) come the findings set out here.

The target of assay [1] is T1, NLRP3 inflammasome (Homo sapiens, UniProt Q96P20).
T1 construct: endogenous in cells; host or cells: THP-1 monocytic cells
Put plainly: IL-1β secretion assay (NLRP3 IC50) in LPS-primed, nigericin-activated THP-1 cells, HTRF. It counts as cell-based. The note with it: monocytic THP-1 cells; LPS 10 ng/mL 3 h priming, then compound + nigericin 10 μM 2 h; relative IC50, 10 concentrations, geometric mean. The method, boiled down: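 THP-1 cells primed with LPS 10 ng/mL for 3 h at 37° C., then compound (10-point 1:3 dilution, 0.1% DMSO) added with 10 μM nigericin for 2 h. Supernatant IL-1β measured by HTRF; relative IC50 from a 4-parameter logistic fit, reported as geometric mean.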
(In TR-FRET formats the signal depends on donor and acceptor labels being close together.)

Assay [2] concerns NF-kB pathway (TNF-α secretion by THP-1 cells). The assay can be described thus: TNF-α secretion assay in LPS-stimulated THP-1 cells, Lumit immunoassay. It counts as cell-based, human. To be noted: Homo sapiens, THP-1, 3 h, monocytic THP-1 cells, LPS 10 ng/mL, relative IC50, 10 concentrations, geometric mean. Put shortly: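 THP-1 monocytes in RPMI with 5% FBS were treated with compound, then stimulated with 10 ng/mL LPS for 3 h. Secreted TNF-α was measured in-plate by Lumit immunoassay. Relative IC50 came from 10-concentration curves fitted with a 4-parameter logistic model, reported as geometric mean.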

T1 sequence (Q96P20 whole entry): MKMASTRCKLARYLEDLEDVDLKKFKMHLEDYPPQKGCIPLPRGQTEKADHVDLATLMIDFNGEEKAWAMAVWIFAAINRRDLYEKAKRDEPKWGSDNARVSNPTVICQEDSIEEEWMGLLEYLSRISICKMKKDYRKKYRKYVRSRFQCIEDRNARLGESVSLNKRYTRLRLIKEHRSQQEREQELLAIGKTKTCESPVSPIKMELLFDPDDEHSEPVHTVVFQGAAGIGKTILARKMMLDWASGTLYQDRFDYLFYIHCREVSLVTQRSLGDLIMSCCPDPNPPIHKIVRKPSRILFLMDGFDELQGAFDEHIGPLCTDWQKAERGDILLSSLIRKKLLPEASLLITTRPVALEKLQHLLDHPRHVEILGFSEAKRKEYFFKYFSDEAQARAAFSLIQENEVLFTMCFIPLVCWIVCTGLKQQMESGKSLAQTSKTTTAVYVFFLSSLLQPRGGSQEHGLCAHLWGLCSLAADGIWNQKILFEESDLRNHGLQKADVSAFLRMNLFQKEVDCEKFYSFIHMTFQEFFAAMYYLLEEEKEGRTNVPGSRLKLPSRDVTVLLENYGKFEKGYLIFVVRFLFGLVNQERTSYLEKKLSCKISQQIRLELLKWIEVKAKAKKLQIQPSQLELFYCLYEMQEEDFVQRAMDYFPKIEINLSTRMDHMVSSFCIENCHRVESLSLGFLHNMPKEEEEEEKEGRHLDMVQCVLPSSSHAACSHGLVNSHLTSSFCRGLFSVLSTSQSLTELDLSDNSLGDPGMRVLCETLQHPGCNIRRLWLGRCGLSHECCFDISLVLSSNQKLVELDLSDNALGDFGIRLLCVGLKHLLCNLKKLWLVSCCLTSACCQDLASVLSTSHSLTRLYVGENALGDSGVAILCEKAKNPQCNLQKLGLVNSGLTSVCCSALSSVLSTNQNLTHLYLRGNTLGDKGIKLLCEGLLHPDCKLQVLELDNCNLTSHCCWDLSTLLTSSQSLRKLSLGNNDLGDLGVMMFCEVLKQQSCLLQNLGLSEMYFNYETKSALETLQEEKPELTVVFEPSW

What is called IC50 is the concentration at which inhibition is half-maximal. Turning to `Cc1cc(C(F)(F)F)cc(O)c1-c1ccc(N2CC[C@H](CO)C2)nn1` [Example 20, 2-[6-[(3S)-3-(hydroxymethyl)pyrrolidin-1-yl]pyridazin-3-yl]-3-methyl-5-(trifluoromethyl)phenol], the figures for the IC50 in assay [1] and in assay [2] were 44 nM and greater than 10 µM, respectively.

Regarding `OC[C@@H]1CN(c2ccc(-c3c(O)cc(Cl)cc3Cl)nn2)CCO1` [Example 21, 3,5-dichloro-2-[6-[(2S)-2-(hydroxymethyl)morpholin-4-yl]pyridazin-3-yl]phenol], the concentration for half-maximal inhibition (IC50) in assay [1] is 20 nM; in assay [2], greater than 10 µM.

`NC[C@H]1CCCN(c2ccc(-c3c(O)cc(Cl)cc3Cl)nn2)C1` [Example 22, 2-[6-[(3R)-3-(aminomethyl)-1-piperidyl]pyridazin-3-yl]-3,5-dichloro-phenol]: the IC50 is 153 nM in assay [1] and greater than 10 µM in assay [2].

`NC[C@@H]1CCN(c2ccc(-c3c(O)cc(Cl)cc3Cl)nn2)C1` [Example 23, 2-[6-[(3S)-3-(aminomethyl)pyrrolidin-1-yl]pyridazin-3-yl]-3,5-dichloro-phenol]: the values for the IC50 in assay [1] and in assay [2] were 192 nM and greater than 10 µM, respectively.

For `NC[C@H]1CCN(c2ccc(-c3c(O)cc(Cl)cc3Cl)nn2)C1` [Example 25, 2-[6-[(3R)-3-(aminomethyl)pyrrolidin-1-yl]pyridazin-3-yl]-3,5-dichloro-phenol], the results for the IC50 in assay [1] and in assay [2] were 109 nM and greater than 10 µM, respectively.

For `Cc1cc(C(F)(F)F)cc(O)c1-c1ccc(N2CCOC(C(C)(C)O)C2)nn1` (centres unmarked) [Example 26, 2-[6-[2-(1-hydroxy-1-methyl-ethyl)morpholin-4-yl]pyridazin-3-yl]-3-methyl-5-(trifluoromethyl)phenol], the IC50 is 352 nM in assay [1] and greater than 10 µM in assay [2].

Take `Cc1cc(C(F)(F)F)cc(O)c1-c1ccc(N2CCC[C@H](CO)C2)nn1` [Example 28, 2-[6-[(3S)-3-(hydroxymethyl)-1-piperidyl]pyridazin-3-yl]-3-methyl-5-(trifluoromethyl)phenol]: the IC50 in assay [1] was 109 nM; in assay [2], greater than 10 µM.

In the case of `Cc1cc(C(F)(F)F)cc(O)c1-c1ccc(N2CCN(C)CC2)nn1` [Example 29, 3-methyl-2-[6-(4-methylpiperazin-1-yl)pyridazin-3-yl]-5-(trifluoromethyl)phenol], the values for the IC50 in assay [1] and in assay [2] were 332 nM and greater than 10 µM, respectively.

Take `Cc1cc(C(F)(F)F)cc(O)c1-c1ccc(N2CC(CO)C2)nn1` [Example 30, 2-[6-[3-(hydroxymethyl)azetidin-1-yl]pyridazin-3-yl]-3-methyl-5-(trifluoromethyl)phenol]: the half-maximal inhibitory concentration (IC50) in assay [1] was 431 nM; in assay [2] it was greater than 10 µM.

For the molecule `Cc1cc(C)c(-c2ccc(N3CCC[C@@H](N)C3)nn2)c(O)c1` [Example 31, 2-[6-[(3R)-3-amino-1-piperidyl]pyridazin-3-yl]-3,5-dimethyl-phenol; formic acid], the figures for the half-inhibitory concentration (IC50) in assay [1] and in assay [2] were 520 nM and greater than 10 µM, respectively.

Take `COC[C@H]1CN(c2ccc(-c3c(O)cc(Cl)cc3Cl)nn2)CCO1` [Example 33, 3,5-dichloro-2-[6-[(2R)-2-(methoxymethyl)morpholin-4-yl]pyridazin-3-yl]phenol]: the IC50 in assay [1] is 239 nM; in assay [2], greater than 10 µM.

Regarding `OC[C@H]1CCCN(c2ccc(-c3c(O)cc(Cl)cc3Cl)nn2)C1` [Example 34, 3,5-dichloro-2-[6-[(3S)-3-(hydroxymethyl)-1-piperidyl]pyridazin-3-yl]phenol], the 50% inhibitory concentration (IC50) in assay [1] is 95 nM; in assay [2], greater than 10 µM.

With `COC[C@@H]1CN(c2ccc(-c3c(O)cc(Cl)cc3Cl)nn2)CCO1` [Example 35, 3,5-dichloro-2-[6-[(2S)-2-(methoxymethyl)morpholin-4-yl]pyridazin-3-yl]phenol], the IC50 was 501 nM in assay [1] and greater than 10 µM in assay [2].

Regarding `OC[C@@H]1CCCN(c2ccc(-c3c(O)cc(Cl)cc3Cl)nn2)C1` [Example 36, 3,5-dichloro-2-[6-[(3R)-3-(hydroxymethyl)-1-piperidyl]pyridazin-3-yl]phenol], the 50% inhibitory concentration (IC50) in assay [1] was 96 nM; in assay [2] it was greater than 10 µM.

For `Oc1cc(Cl)cc(Cl)c1-c1ccc(N2CCOCC2)nn1` [Example 38, 3,5-dichloro-2-(6-morpholinopyridazin-3-yl)phenol], the results for the IC50 in assay [1] and in assay [2] were 90 nM and greater than 10 µM, respectively.

In the case of `CN(C)C[C@H]1CN(c2ccc(-c3c(O)cc(Cl)cc3Cl)nn2)CCO1` [Example 39, 3,5-dichloro-2-[6-[(2S)-2-[(dimethylamino)methyl]morpholin-4-yl]pyridazin-3-yl]phenol], the IC50 in assay [1] was 238 nM; in assay [2], greater than 10 µM.

As to `CN(C)C[C@@H]1CCN(c2ccc(-c3c(O)cc(Cl)cc3Cl)nn2)C1` [Example 40, 3,5-dichloro-2-[6-[(3S)-3-[(dimethylamino)methyl]pyrrolidin-1-yl]pyridazin-3-yl]phenol], the IC50 in assay [1] is 420 nM; in assay [2] it was greater than 10 µM.

In the case of `CN(C)C[C@H]1CCN(c2ccc(-c3c(O)cc(Cl)cc3Cl)nn2)C1` [Example 41, 3,5-dichloro-2-[6-[(3R)-3-[(dimethylamino)methyl]pyrrolidin-1-yl]pyridazin-3-yl]phenol], the IC50 in assay [1] was 252 nM; in assay [2] it was greater than 10 µM.

Turning to `Oc1cc(Cl)cc(Cl)c1-c1ccc(N2CCC3(CC(O)C3)C2)nn1` (centres unmarked) [Example 42, 6-[6-(2,4-dichloro-6-hydroxy-phenyl)pyridazin-3-yl]-6-azaspiro[3.4]octan-2-ol], the figures for the IC50 in assay [1] and in assay [2] were 134 nM and greater than 10 µM, respectively.

With `Cc1cc(O)c(-c2ccc(N3CCO[C@H](CO)C3)nn2)c(F)c1` [Example 45, 3-fluoro-2-[6-[(2S)-2-(hydroxymethyl)morpholin-4-yl]pyridazin-3-yl]-5-methyl-phenol], the IC50 is 281 nM in assay [1] and greater than 10 µM in assay [2].

With `Oc1cc(Cl)cc(Cl)c1-c1ccc(N2CC3(CC(O)C3)C2)nn1` [Example 46, 2-[6-(2,4-dichloro-6-hydroxy-phenyl)pyridazin-3-yl]-2-azaspiro[3.3]heptan-6-ol], the figures for the IC50 in assay [1] and in assay [2] were 389 nM and greater than 10 µM, respectively.

Turning to `OC[C@@H]1CN(c2ccc(-c3c(O)cccc3Cl)nn2)CCO1` [Example 48, 3-chloro-2-[6-[(2S)-2-(hydroxymethyl)morpholin-4-yl]pyridazin-3-yl]phenol], the IC50 is 386 nM in assay [1] and greater than 10 µM in assay [2].

`OC[C@@H]1CN(c2ccc(-c3c(O)cccc3C(F)(F)F)nn2)CCO1` [Example 54, 2-[6-[(2S)-2-(hydroxymethyl)morpholin-4-yl]pyridazin-3-yl]-3-(trifluoromethyl) phenol]: the figures for the IC50 in assay [1] and in assay [2] were 132 nM and greater than 10 µM, respectively.

`CN1CC2(CCN(c3ccc(-c4c(O)cc(Cl)cc4Cl)nn3)CC2)C1` [Example 55, 3,5-dichloro-2-[6-(2-methyl-2,7-diazaspiro[3.5]nonan-7-yl)pyridazin-3-yl]phenol]: the IC50 is 176 nM in assay [1] and greater than 10 µM in assay [2].

Consider `Cc1cccc(O)c1-c1ccc(N2CCO[C@H](CO)C2)nn1` [Example 56, 2-[6-[(2S)-2-(hydroxymethyl)morpholin-4-yl]pyridazin-3-yl]-3-methyl-phenol], for which the IC50 in assay [1] is 111 nM; in assay [2], greater than 10 µM.
